According to patent US20220386609A1, “META-DIAMIDE INSECTICIDES” (FMC Corporation, priority 2019, published 2022):

Legend:
[1] = test system: potato leafhopper (Empoasca fabae (Harris)); assay: Test D: control of potato leafhopper through contact and/or systemic means; assay type: in vivo; conditions: 144 h, Soleil bean plant, adults, 6 days; for mortality at 50 ppm: tested at 50 ppm; for mortality at 250 ppm: tested at 250 ppm
Procedure: (§1) Test compounds were formulated using a solution containing 10% acetone, 90% water and 300 ppm Activator 90® non-ionic surfactant (Loveland Products, Loveland, Colo., USA). The formulated compounds were applied in 1 mL of liquid through an atomizer nozzle positioned 1.27 cm (0.5 inches) above the top of each test unit. Test compounds were sprayed at the rates indicated, and each test was replicated three times.
For evaluating control of potato leafhopper (Empoasca fabae (Harris)) through contact and/or systemic means, the test unit consisted of a small open container with a 5-6-day-old Soleil bean plant (primary leaves emerged) inside. White sand was added to the top of the soil, and one of the primary leaves was excised prior to application of the test compound.
Test compounds were formulated and sprayed at 250 and/or 50 ppm. After spraying of the formulated test compound, the test units were allowed to dry for 1 hour before they were post-infested with 5 potato leafhoppers (18-to-21-day-old adults). A black, screened cap was placed on the top of the test unit, and the test units were held for 6 days in a growth chamber at 20° C. and 70% relative humidity. Each test unit was then visually assessed for insect mortality.

[2] = test system: cotton melon aphid (Aphis gossypii (Glover)); assay: Test F: control of cotton melon aphid through contact and/or systemic means; assay type: in vivo; conditions: 144 h, tested at 250 ppm, okra plant, 6 days
Procedure: as §1
[…] This was pre-infested with 30-40 insects on a piece of leaf according to the cut-leaf method, and the soil of the test unit was covered with a layer of sand.
Test compounds were formulated and sprayed at 250 and/or 50 ppm. After spraying, the test units were maintained in a growth chamber for 6 days at 19° C. and 70% relative humidity. Each test unit was then visually assessed for insect mortality.

melting point	Compound	mortality at 50 ppm [1]	mortality at 250 ppm [1]	mortality at 250 ppm [2]
	O=C(C[C@H](c1cccc(C(F)(F)F)c1)C(F)(F)F)Nc1ccc(Cl)c(C(=O)Nc2ccc(F)cc2F)c1 [Compound 103, (βR)—N-[4-chloro-3-[[(2,4-difluorophenyl)amino]carbonyl]phenyl]-β,3-bis(trisfluoromethyl)benzenepropanamide]	≥ 80%		
	O=C(CC(c1cc(Cl)cc(Cl)c1)C(F)(F)F)Nc1ccc(Cl)c(C(=O)Nc2ccc(F)cc2F)c1 (stereo not drawn) [Compound 60, 3,5-dichloro-N-[4-chloro-3-[[(2,4-difluorophenyl)amino]carbonyl]phenyl]-β-(trifluoro-methyl)benzenepropanamide]	≥ 80%	≥ 80%	
	O=C(CC(c1ccc(Cl)c(Cl)c1)C(F)(F)F)Nc1ccc(Cl)c(C(=O)Nc2ccc(F)cc2)c1 (stereo not drawn) [Compound 1, 3,4-dichloro-N-[4-chloro-3-[[(4-fluorophenyl)amino]carbonyl]phenyl]-β-(trifluoro-methyl)benzenepropanamide]		≥ 80%	
	O=C(CC(c1ccc(F)c(Cl)c1)C(F)(F)F)Nc1ccc(Cl)c(C(=O)Nc2ccc(F)cc2F)c1 (stereo not drawn) [Compound 115, 3-chloro-N-[4-chloro-3-[[(2,4-difluorophenyl)amino]carbonyl]phenyl]-4-fluoro-β-(trifluoromethyl)benzenepropanamide]	≥ 80%		
	O=C(CC(c1cccc(C(F)(F)F)c1)C(F)(F)F)Nc1ccc(Cl)c(C(=O)Nc2ccc(F)cc2F)c1 (stereo not drawn) [Compound 5, N-[4-chloro-3-[[(2,4-difluorophenyl)amino]carbonyl]phenyl]-β,3-bis(trifluoromethyl)benzenepropanamide]		≥ 80%	
96 to 99 °C	O=C(CC(c1cccc(C(F)(F)F)c1)C(F)(F)F)Nc1ccc(Cl)c(C(=O)NCc2ccc(F)cc2F)c1 (stereo not drawn) [Compound 148, N-[4-chloro-3-[[(2,4-difluorophenyl)methylamino]carbonyl]phenyl]-β,3-bis(trifluoromethyl)benzenepropanamide]			
	O=C(CC(c1ccc(Cl)c(Cl)c1)C(F)(F)F)Nc1ccc(Cl)c(C(=O)Nc2ccc(F)cc2F)c1 (stereo not drawn) [Compound 52, 3,4-dichloro-N-[4-chloro-3-[[(2,4-difluorophenyl)amino]carbonyl]phenyl]-β-(trifluoro-methyl)benzenepropanamide]	≥ 80%	≥ 80%	≥ 80%
